Reference: patent publication US20200268831A1, “METHODS FOR ENHANCING IMMUNOTHERAPY IN THE TREATMENT OF CANCER” (The Texas A&M University System, priority 2017, published 2020)

Tests used:
[1] = tested on: MHC class II expressing B cells; assay: MHCII-mediated cell death of CpG-activated cells after peptide and anti-MHCII antibody; assay type: cell-based, C57/B6 mice; conditions: CpG activated cells treated with peptide followed by antibodies to MHCII; FIG. 3A
Description: In a first experiment, animals were injected with complete Freunds adjuvant (CFA) that contains mycobacterial DNA (a well-established TLR activator), or with CFA followed by the competitive antagonist peptide (CLIP inhibitor, SEQ ID NO. 2). Spleens were harvested, stained with CD19 for the detection of B cells, versus CLIP as an indicator of CD19+ cells expressing CLIP. The effect of CLIP inhibitors delivered in vivo on B cells (1A) versus CLIP+B cells (1B) is presented in the bar graphs.
To test the hypothesis that CLIP in the groove prevents MHCII-mediated cell death, we utilized animals that are deficient in CD74 expression (Ii Def mice), thus lacking both the precursor CD74 molecule as well as its proteolytic product, CLIP. […] any increase in cell death following CpG treatment, FIGS. 3A and 3B. […] The absence of CLIP (CLIP knock outs) leaves the cells susceptible to MHC Class II-mediated cell death (3B).

[2] = tested on: MHCII in B cells; assay: competitive displacement of peptides in the peptide binding groove of MHCII in B cells; assay type: cell-based; conditions: preliminary studies
Description: To confirm the expression of MHCII staining with fluorochrome-conjugated anti-MHCII antibodies, followed by flow cytometric analysis may be performed. The cells are stained for a panel of cell surface molecules, including CD19, CD80 (B7.1), CD86 (B7.2), CD74, MHCII associated invariant peptide (CLIP), and the family of immune check points, including PD1, B7-H2, and B7-H4. As a starting concentration, the cultured cells are treated with a competitive antagonist peptide (CAP) at a concentration of 5 μg/ml, as established from preliminary studies as the optimum concentration for competitive displacement of peptides in the peptide binding groove of MHCII in B cells. […] To characterize these parameters, including levels of MHCII and other cell surface characteristics, the cells are treated with the competitive antagonist peptide at the previously determined optimum concentration, presumably 5 μg/ml, followed by treatment with anti-MHCII antibody as a surrogate for TCR engagement. Susceptibility to MHCII-mediated cell death is assessed by treating the cells with peptide, followed by treatment with anti-MHCII antibody for periods ranging between 3 and 24 hours to determine the optimum kinetics for inducing cell death. […] The capability of CAP peptide treatment to promote MHCII-mediated cell death may be assessed.

## FRIMAVLAS [TPP]
[1]
  MHC Class-II-mediated cell death: MHC Class-II-mediated cell death can be restored
[2]
  optimum concentration for competitive displacement of peptides in the peptide binding groove of MHCII: 5 µg/mL
